In publication PMC12207366, “Protonated Glutamate and Aspartate Side Chains Can Recognize Phosphodiester Groups via Strong and Short Hydrogen Bonds in Biomacromolecular Complexes” (Angewandte Chemie (International Ed. in English), 2025):
Read-outs that look alike come from different tables or passages of the source.

Tests used:
[1] = molecular target: T1, PilF159-302 WT (Thermus thermophilus, UniProt Q72H73); test: ITC c-di-GMP binding to wild-type GSPII-B domain; settings: for -TΔS / Kd / ΔG / ΔH: 20 °C
T1 sequence (Q72H73 159-302): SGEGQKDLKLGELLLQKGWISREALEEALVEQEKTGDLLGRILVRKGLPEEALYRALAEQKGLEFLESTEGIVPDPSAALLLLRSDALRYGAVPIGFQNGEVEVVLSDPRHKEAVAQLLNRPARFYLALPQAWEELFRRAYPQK
Text: (§1) To characterize c-di-GMP binding by PilF159-302, the Q190E and Q218E constructs via isothermal titration calorimetry (ITC) and X-ray crystallography unlabeled c-di-GMP was synthesized using a constitutively active mutant of a diguanylate cyclase from the thermophilic bacterium Thermogata maritima ^[4^4,4^5]. For NMR experiments ^13C,^15N labelled c-di-GMP was synthesized identically using ^13C,^15N labelled GTP as a substrate.
(§2) c-di-GMP binding capabilities of PilF159-302, its mutant constructs PilF159-302 Q190E and PilF159-302 Q218E at varying pH-values were investigated by isothermal titration calorimetry (ITC) experiments in triplicate. All measurements were conducted at 20 °C using a MicroCal ITC200 (Malvern Panalytical, UK). For PilF159-302 Q190E and PilF159-302 Q218E ITC-measurements were conducted in a pH range from pH 8.5 – 4.0 with the buffering agent adjusted to the respective pH-range. For the pH-range 8.5 – 7.5 a sample buffer of 50 mM Tris, 200 mM NaCl and 1 mM β-Me was used. For pH values 7.0 – 6.0 a sample buffer of 50 mM BisTris, 200 mM NaCl, 1 mM β-Me and for pH 5.5 – 4.0 a sample buffer of 50 mM NaAc, 200 mM NaCl, 1 mM β-Me was used. For reference PilF159-302 was titrated with c-di-GMP at pH 8.5 in 50 mM Tris pH 8.5, 200 mM NaCl, 1 mM β-Me and at pH 4.0 in 50 mM NaAc pH 4.0, 200 mM NaCl, 1 mM β-Me. In order to test whether the buffer reagents have an influence on the measured thermodynamic parameters, cross measurements were performed in the region of the pH transitions. To this end, additional measurements with BisTris at pH 7.5 and 5.5, with Tris at pH 7.0 and with NaAc at pH 6.0 were carried out as singlets. The buffer agents had no influence on measured KD-values and resulted only in small changes of the ΔH values. All protein samples were dialyzed two times against 500 ml of the respective sample buffer (1 L in total) at 4 °C for at least 16 hours per step using a dialysis chamber with a nominal 3.5 kDa molecular weight cutoff (ZelluTrans, ROTH). To prepare the ITC-measurements protein and c-di-GMP sample were adjusted to the respective concentration using the dialysis buffer. Protein and c-di-GMP concentration ranged from 20 to 50 µM (protein) and 200 to 500 µM (c-di-GMP) depending on the c-di-GMP binding capabilities at the different pH-values to optimize precision of the measurements. For pH 8.5 – 7.0 a protein concentration of 50 µM with 500 µM c-di-GMP was used. For pH 6.5 – 5.0 a protein concentration of 30 µM with 300 µM c-di-GMP and for pH 4.5 – 4.0 a protein concentration of 20 µM with 200 µM c-di-GMP was used. The following protocol was utilized for each measurement. To 270 µl protein a total of 40 µl c-di-GMP was titrated in 21 injections with a duration of 4 s in intervals of 180 s with a stirring speed of 750 rpm. The first injection of 0.2 µl c-di-GMP with a duration of 0.4 s was carried out after an initial delay of 120 s, which was followed by 20 injections of 2 µl each with a duration of 4 s. During the measurement, the feedback mode was set to high and the reference power to 11 µcal s^-1. All thermograms were processed using Origin 7.0 (OriginLab) using the one-site binding model.

[2] = molecular target: T2, PilF159-302 Q218E (Thermus thermophilus, UniProt Q72H73, Q218E); test: ITC c-di-GMP binding to Q218E mutant, pH series; settings: 20 °C
T2 sequence (Q72H73 159-302 Q218E): T1 sequence (Q72H73 159-302)
Text: as §1, §2

[3] = molecular target: T3, PilF159-302 Q190E (Thermus thermophilus, UniProt Q72H73, Q190E); set-up: method as in PMID 39615687; settings: in vitro, pH 7.5; cited from earlier work
T3 sequence (Q72H73 159-302 Q190E): T1 sequence (Q72H73 159-302)

[4] = molecular target: T2, PilF159-302 Q218E; set-up: method as in PMID 39615687; settings: in vitro, pH 7.5; cited from earlier work
[5] = tested on: PilF159-221; set-up: method as in PMID 39615687; settings: cited from earlier work
[6] = molecular target: T1, PilF159-302 WT; set-up: method as in PMID 39615687; settings: GSPII-B (PilF159-302) four-helix bundle; cited from earlier work
[7] = molecular target: T3, PilF159-302 Q190E; test: ITC c-di-GMP binding to Q190E mutant, pH series; settings: 20 °C
Text: as §1, §2

[8] = tested on: GSPII-B domain Q190E Q218E double mutant; set-up: method as in PMID 39615687; settings: in vitro, pH 7.5; cited from earlier work
[9] = Bis-Tris, pH 5.5, buffer cross measurement, singlet
[10] = Bis-Tris, pH 7.5, buffer cross measurement, singlet
[11] = Na-Acetate, pH 6.0, buffer cross measurement, singlet
[12] = Tris, pH 7.0, buffer cross measurement, singlet

## Nc1nc2c(ncn2C2OC3COP(=O)(O)OC4C(COP(=O)(O)OC3C2O)OC(n2cnc3c(=O)[nH]c(N)nc32)C4O)c(=O)[nH]1 (stereo not shown) [c-di-GMP]
[1]; ITC, pH 4.0 versus pH 8.5
  c-di-GMP binding affinity, pH dependence: similar
[1]; Na-Acetate, pH 4.0
  -TΔS: -4.81 kcal/mol
  Kd: 4 nM
  ΔG: -11.26 kcal/mol
  ΔH: -6.45 kcal/mol
[1]; Tris, pH 8.5
  -TΔS: 0.63 kcal/mol
  Kd: 9 nM
  ΔG: -10.78 kcal/mol
  ΔH: -11.41 kcal/mol
[2]; Bis-Tris, pH 6.0
  -TΔS: -2.23 ± 0.80 kcal/mol
  Kd: 64 ± 7 nM
  N: 1.03 ± 0.23
  ΔG: -9.64 ± 0.06 kcal/mol
  ΔH: -7.42 ± 0.75 kcal/mol
[2]; Bis-Tris, pH 6.5
  -TΔS: -1.48 ± 0.23 kcal/mol
  Kd: 110 ± 3 nM
  N: 1.00 ± 0.27
  ΔG: -9.33 ± 0.02 kcal/mol
  ΔH: -7.86 ± 0.22 kcal/mol
[2]; Bis-Tris, pH 7.0
  -TΔS: -2.05 ± 0.07 kcal/mol
  Kd: 249 ± 7 nM
  N: 0.90 ± 0.16
  ΔG: -8.85 ± 0.02 kcal/mol
  ΔH: -6.80 ± 0.08 kcal/mol
[2]; Na-Acetate, pH 4.0
  Kd: 23 ± 10 nM
  N: 0.84 ± 0.07
[2]; Na-Acetate, pH 4.5
  -TΔS: -2.56 ± 0.49 kcal/mol
  Kd: 61 ± 7 nM
  N: 0.90 ± 0.04
  ΔG: -9.68 ± 0.07 kcal/mol
  ΔH: -7.12 ± 0.44 kcal/mol
[2]; Na-Acetate, pH 5.0
  -TΔS: -1.47 ± 0.47 kcal/mol
  Kd: 36 ± 8 nM
  N: 1.31 ± 0.09
  ΔG: -9.99 ± 0.13 kcal/mol
  ΔH: -8.53 ± 0.44 kcal/mol
[2]; Na-Acetate, pH 5.5
  -TΔS: -0.40 ± 1.00 kcal/mol
  Kd: 28 ± 10 nM
  N: 0.97 ± 0.09
  ΔG: -10.17 ± 0.20 kcal/mol
  ΔH: -9.78 ± 0.92 kcal/mol
[2]; Tris, pH 7.5
  -TΔS: -3.22 ± 0.17 kcal/mol
  Kd: 342 ± 26 nM
  N: 0.92 ± 0.07
  ΔG: -8.67 ± 0.04 kcal/mol
  ΔH: -5.45 ± 0.13 kcal/mol
[2]; Tris, pH 8.0
  -TΔS: 0.99 ± 0.27 kcal/mol
  Kd: 432 ± 25 nM
  N: 1.12 ± 0.05
  ΔG: -8.53 ± 0.03 kcal/mol
  ΔH: -9.52 ± 0.31 kcal/mol
[2]; Tris, pH 8.5
  -TΔS: 2.15 ± 0.18 kcal/mol
  Kd: 463 ± 13 nM
  N: 0.73 ± 0.14
  ΔG: -8.49 ± 0.02 kcal/mol
  ΔH: -10.65 ± 0.16 kcal/mol
[3]
  c-di-GMP binding affinity relative to WT: significantly reduced affinity
[4]
  c-di-GMP binding affinity relative to WT: significantly reduced affinity
[5]
  c-di-GMP binding affinity of subdomain relative to full-length domain: comparable
[6]
  Kd: ~6 nM
[7]; [9]
  -TΔS: -2.53 kcal/mol
  Kd: 71 nM
  ΔG: -9.58 kcal/mol
  ΔH: -7.06 kcal/mol
[7]; Bis-Tris, pH 6.0
  -TΔS: -3.45 ± 0.05 kcal/mol
  Kd: 67 ± 3 nM
  N: 0.96 ± 0.01
  ΔG: -9.40 ± 0.02 kcal/mol
  ΔH: -5.97 ± 0.05 kcal/mol
[7]; Bis-Tris, pH 6.5
  -TΔS: -3.55 ± 0.20 kcal/mol
  Kd: 160 ± 34 nM
  N: 0.72 ± 0.12
  ΔG: -9.12 ± 0.13 kcal/mol
  ΔH: -5.58 ± 0.09 kcal/mol
[7]; Bis-Tris, pH 7.0
  -TΔS: -4.14 ± 0.23 kcal/mol
  Kd: 236 ± 8 nM
  N: 0.98 ± 0.01
  ΔG: -8.88 ± 0.02 kcal/mol
  ΔH: -4.76 ± 0.21 kcal/mol
[7]; [10]
  -TΔS: -2.51 kcal/mol
  Kd: 505 nM
  ΔG: -8.44 kcal/mol
  ΔH: -5.93 kcal/mol
[7]; Na-Acetate, pH 4.0
  -TΔS: -2.59 ± 0.37 kcal/mol
  Kd: 40 ± 13 nM
  N: 0.98 ± 0.01
  ΔG: -9.96 ± 0.22 kcal/mol
  ΔH: -7.37 ± 0.17 kcal/mol
[7]; Na-Acetate, pH 4.5
  -TΔS: -2.27 ± 0.87 kcal/mol
  Kd: 42 ± 13 nM
  N: 0.95 ± 0.13
  ΔG: -9.92 ± 0.18 kcal/mol
  ΔH: -7.65 ± 0.98 kcal/mol
[7]; Na-Acetate, pH 5.0
  -TΔS: -0.27 ± 0.51 kcal/mol
  Kd: 78 ± 11 nM
  N: 0.91 ± 0.04
  ΔG: -9.54 ± 0.09 kcal/mol
  ΔH: -9.28 ± 0.43 kcal/mol
[7]; Na-Acetate, pH 5.5
  -TΔS: -1.11 ± 0.16 kcal/mol
  Kd: 74 ± 8 nM
  N: 1.02 ± 0.02
  ΔG: -9.56 ± 0.07 kcal/mol
  ΔH: -8.54 ± 0.04 kcal/mol
[7]; [11]
  -TΔS: -0.49 kcal/mol
  Kd: 96 nM
  ΔG: -9.41 kcal/mol
  ΔH: -8.93 kcal/mol
[7]; [12]
  -TΔS: -6.09 kcal/mol
  Kd: 223 nM
  ΔG: -8.92 kcal/mol
  ΔH: -2.81 kcal/mol
[7]; Tris, pH 7.5
  -TΔS: -4.63 ± 0.19 kcal/mol
  Kd: 511 ± 13 nM
  N: 0.95 ± 0.09
  ΔG: -8.44 ± 0.02 kcal/mol
  ΔH: -3.81 ± 0.20 kcal/mol
[7]; Tris, pH 8.0
  -TΔS: -3.37 ± 0.65 kcal/mol
  Kd: 729 ± 44 nM
  N: 0.84 ± 0.17
  ΔG: -8.23 ± 0.04 kcal/mol
  ΔH: -4.87 ± 0.68 kcal/mol
[7]; Tris, pH 8.5
  -TΔS: -2.52 ± 0.20 kcal/mol
  Kd: 798 ± 39 nM
  N: 0.86 ± 0.09
  ΔG: -8.18 ± 0.03 kcal/mol
  ΔH: -5.66 ± 0.17 kcal/mol
[8]
  c-di-GMP binding: did not bind
